In the supplement of paper PMC8671470:

How the values were obtained:
Conditions in all cases: 72 h
HL-60 [1] = experiment: cell viability (% survival relative to DMSO control); higher = less cytotoxic
Summary of the method: (§1)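 Area under the curve, where listed, was derived from four-parameter log-logistic fits with drc and PharmacoGx. These fits used CellTiter-Glo viability from HL-60 cells in RPMI 1640 with 10% FBS, normalised to DMSO wells and wells holding 10 μM proteasome inhibitor. The full library was rescreened on 384-well plates in duplicate at five tenfold concentrations, 1–10,000 nM, with DMSO or 100 nM of one of three metabolic inhibitors, for 72 h at 37 °C, 5% CO2.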

THP-1 = experiment: cell viability (% survival relative to DMSO control, bortezomib = 0%); higher = less cytotoxic
Summary of the method: (§2)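 Reported values are percent survival from duplicate wells, averaged. Fifteen myeloid leukaemia cell lines were treated in 384-well plates with compounds at 1, 10, 100, 1000 or 10000 nM for 72 h at 37 °C in 5% CO2. Signals from CellTiter-Glo luminescence were scaled with vehicle as 100% and a 10 µM positive control as 0%.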

NOMO-1 = experiment: as above
Summary of the method: as §2

SHI-1 = experiment: as above
Summary of the method: as §2

K-562 = experiment: as above
Summary of the method: as §2

LAMA-84 = experiment: as above
Summary of the method: as §2

BV-173 = experiment: as above
Summary of the method: as §2

HEL = experiment: as above
Summary of the method: as §2

HL-60 [2] = experiment: as above
Summary of the method: as §2

ML-2 = experiment: as above
Summary of the method: as §2

KCL-22 = experiment: as above
Summary of the method: as §2

KG-1 = experiment: as above
Summary of the method: as §2

MOLM-13 = experiment: as above
Summary of the method: as §2

KU-812 = experiment: as above
Summary of the method: as §2

MV4-11 [3] = experiment: as above
Summary of the method: as §2

Mono-Mac-6 = experiment: as above
Summary of the method: as §2

HL-60 [4] = experiment: area under dose-response curve (viability, 1 nM-10 uM) (fraction (0-1)); higher = more sensitive
Summary of the method: as §1

MV4-11 [5] = test system: MV4-11
Summary of the method: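 In 384-well plates holding acoustically pre-printed compounds at five tenfold doses from 1 to 10,000 nM, in duplicate, fifteen myeloid leukaemia cell lines were grown in RPMI 1640 for 72 h at 37 °C with 5% CO2. Luminescent ATP viability was scaled between vehicle and a positive control at 10 µM. The IC50 was then taken from log-logistic dose–response fits with four parameters.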

OC[C@H]1OC(O)C[C@@H](O)[C@@H]1O (stereo partly specified) [2-deoxyglucose]
cell viability [%], HL-60 [1]
Conditions	0.001 µM	0.01 µM	0.1 µM	1 µM	10 µM
co-treatment: AZD3965 100 nM	107	110	103	103.1	103
co-treatment: DMSO vehicle	104	101	99.45	103.5	97.27
co-treatment: GSK2194069 100 nM	102	107	102	101	104
co-treatment: pictilisib 100 nM	102	109.7	99.6	104	108

Conditions	area under dose-response curve, co-treatment: AZD3965 100 nM	area under dose-response curve, co-treatment: DMSO vehicle	area under dose-response curve, co-treatment: GSK2194069 100 nM	area under dose-response curve, co-treatment: pictilisib 100 nM	cell viability, 1 nM [%]	cell viability, 10 nM [%]	cell viability, 100 nM [%]	cell viability, 1000 nM [%]	cell viability, 10000 nM [%]
BV-173	–	–	–	–	126	107	109	90.4	106
HEL	–	–	–	–	123	113	112	93.3	95.1
HL-60 [2]	–	–	–	–	82.5	92	106	102	94.7
HL-60 [4]	< 0.0301	< 0.0301	< 0.0301	< 0.0301	–	–	–	–	–
K-562	–	–	–	–	107	117	94.2	101	99.6
KCL-22	–	–	–	–	110	107	107	90.6	104
KG-1	–	–	–	–	111	95.2	98.9	82.6	92.9
KU-812	–	–	–	–	105	101	101	85.1	95.5
LAMA-84	–	–	–	–	107	114	95.6	86.3	96.8
ML-2	–	–	–	–	101	110	102	89.4	96.1
MOLM-13	–	–	–	–	86.7	108	93	90.1	86.4
MV4-11 [3]	–	–	–	–	102	91.4	100	92	110
Mono-Mac-6	–	–	–	–	65.6	99.3	102	89.4	99.2
NOMO-1	–	–	–	–	112	100	107	87.9	93.6
SHI-1	–	–	–	–	112	105	105	93.4	98.3
THP-1	–	–	–	–	92	96.1	105	86.9	100

Conditions	IC50 (cell viability) [µM]
MV4-11 [5]	> 10

CC(C)(CS(=O)(=O)[O-])NC(=O)CC[N+](C)(C)CCO
cell viability [%], HL-60 [1]
Conditions	0.001 µM	0.01 µM	0.1 µM	1 µM	10 µM
co-treatment: AZD3965 100 nM	101	89.5	116	122	94.1
co-treatment: DMSO vehicle	95.9	98.4	107.3	106	100
co-treatment: GSK2194069 100 nM	105	95.2	102	111	99.7
co-treatment: pictilisib 100 nM	102	79.9	107	115	99.9

Conditions	area under dose-response curve, co-treatment: AZD3965 100 nM	area under dose-response curve, co-treatment: DMSO vehicle	area under dose-response curve, co-treatment: GSK2194069 100 nM	area under dose-response curve, co-treatment: pictilisib 100 nM	cell viability, 1 nM [%]	cell viability, 10 nM [%]	cell viability, 100 nM [%]	cell viability, 1000 nM [%]	cell viability, 10000 nM [%]
BV-173	–	–	–	–	88.4	97.7	91.6	91.3	113
HEL	–	–	–	–	101	106	93.8	98.8	104
HL-60 [2]	–	–	–	–	116	118	97.8	78.4	97.8
HL-60 [4]	< 0.0301	< 0.0301	< 0.0301	< 0.0301	–	–	–	–	–
K-562	–	–	–	–	108	88.5	105	97.8	105
KCL-22	–	–	–	–	107	103	94.1	88.8	117
KG-1	–	–	–	–	97.4	114	93.6	94.4	118
KU-812	–	–	–	–	99.7	98.6	99.3	89.4	107
LAMA-84	–	–	–	–	88.8	96.6	100	91.3	106
ML-2	–	–	–	–	95.4	109	89.4	88.9	115
MOLM-13	–	–	–	–	121	112	97.2	82.3	117
MV4-11 [3]	–	–	–	–	104	101	99.8	95.6	114
Mono-Mac-6	–	–	–	–	86.8	105	90.1	91.6	105
NOMO-1	–	–	–	–	94.8	102	96	94.3	101
SHI-1	–	–	–	–	107	115	96.8	91.8	126
THP-1	–	–	–	–	101	102	99.5	93.2	120

Conditions	IC50 (cell viability) [µM]
MV4-11 [5]	> 10

O=C(Oc1cccc(F)c1OC(=O)c1cccc(O)c1)c1cccc(O)c1 [WZB117]
cell viability [%], HL-60 [1]
Conditions	0.001 µM	0.01 µM	0.1 µM	1 µM	10 µM
co-treatment: AZD3965 100 nM	102.1	97.3	103.1	101.6	68.9
co-treatment: DMSO vehicle	103	98.8	99	101	73.3
co-treatment: GSK2194069 100 nM	102	91.2	95.2	99.8	84.6
co-treatment: pictilisib 100 nM	111	100	96.8	97.1	70.9

cell viability [%]
Conditions	1 nM	10 nM	100 nM	1000 nM	10000 nM
BV-173	96	104	90.5	98.8	15.4
HEL	107	110	95.2	99.8	72.7
HL-60 [2]	102	98	93.3	104	48
K-562	96.2	101	102	106	79.1
KCL-22	101	91.4	92	110	70.6
KG-1	113	95.7	87.6	90.4	30.7
KU-812	99.1	103	90.9	99.9	9.71
LAMA-84	97.9	98.6	92.4	95.1	101
ML-2	102	104	98.7	98.8	25.5
MOLM-13	92.2	125	94.7	94	44.8
MV4-11 [3]	106	85.9	97	88.2	25.4
Mono-Mac-6	96.6	104	99.7	101	16.9
NOMO-1	95.5	94.3	94.1	111	82.1
SHI-1	95.8	95.6	102	103	72.5
THP-1	101	102	101	108	64.9

Conditions	IC50 (cell viability) [µM]
MV4-11 [5]	2.93
